Measurements: patent US7195788B2, “Pesticidal compositions from prunus” (Premier Botanicals, Ltd., priority 2001, dated 2007)
Several values for one entry are separate records, joined by “and”; a condition that tells them apart may be missing. Equal entries are not always repeated.

How the values were obtained:
[1] = tested on: Sphaerotheca pannosa; experiment: Powdery mildew development on rose leaves after spray treatment; format: in vivo; settings: for Powdery mildew disease rating on rose leaves, per repetition: scale 1 = no symptoms, 5 = 100% infection, Prunus 1 crude, Prunus 2 and SB at 1000 ppm, repetitions 1-3
Procedure: Prunus compositions (including crude Prunus virginiana hydrodistillate, collected in vessel 112 of FIG. 2, having the SPME determined composition of the first entry in Table 1) were tested on diseased plants and were evaluated as a fungicide for controlling Rose powdery mildew. The experiment was set up in a complete randomized block design with three repetitions and four treatments. Treatments were as follows: Prunus 1: crude hydrodistillate from Prunus biomass, Prunus 2: benzaldehyde separated from the crude hydrodistillate at 1,000 ppm, SB-synthetic benzaldehyde, and control-distilled water.
Treatments were applied to infected leaves twice (one week apart) in late July, and once in late August. All leaves were covered with mildew mycelia at the time of the first treatment. One compound leaf was treated with each treatment. Leaves from different stems were treated for each of the three repetition. The treatments were applied with a mist sprayer until run off. Disease development was rated on a scale of 1 to 5, where 1 indicated no symptoms and 5 indicated 100-percent infected. The first disease rating was obtained at the time of the late August treatment, followed by a second disease rating in early September. […] The crude distillate from the Prunus biomass was effective in eliminating or inhibiting the growth of the fungus on the rose leaves. […] The crude hydrodistillate containing all of the volatile compounds identified in Example 1 appeared to act synergistically, relative to purified or synthetic benzaldehyde, to control the rose mildew fungus.

[2] = tested on: Cytospora chrysosperma; experiment: In vitro mycelia growth of Cytospora chrysosperma on potato dextrose agar containing the test material; format: cell-based; settings: 23° C.
Procedure: The effectiveness of Prunus compositions was compared to the effectiveness of synthetic benzaldehyde in stopping or restricting the growth of the Cytospora fungus on potato dextrose agar. The volatile compounds of a Prunus virginiana hydrodistillate were concentrated by counter-flow flash evaporation (i.e. collected from vessel 122 as shown in FIG. 2) to provide a concentrated extract that was further processed by distillation to remove hydrocyanic acid. The resulting extract was analyzed and found to contain 1.2% trans-2-hexenal, 98.5% benzaldehyde, and traces of other compounds originally in the hydrodistillate. This extract was reconstituted in distilled water to provide a solution containing approximately 10,000 ppm of Prunus volatiles. This stock solution was used to prepare a series of agar solutions containing between 0 and 10,000 ppm Prunus volatiles. The Prunus material was blended into the agar after autoclaving and prior to pouring the agar into Petri plates. […] All plates were inoculated with a 5-mm potato dextrose agar plug from a two-week-old culture of C. chrysosperma.

[3] = tested on: Uncinula necator; experiment: Powdery mildew development on 'Pinot Noir' grape leaves after spray treatment; format: in vivo; settings: for Powdery mildew disease rating on grape leaves, per repetition: scale 1 = no symptoms, 5 = 100% infected, Prunus 1 crude, Prunus 2 and SB at 1000 ppm, repetitions 1-3
Procedure: Prunus compositions (including crude Prunus virginiana hydrodistillate, collected in vessel 112 of FIG. 2, having the analysis of the first entry of Table 1) were tested on grape plants (Pinot Noir) infected with powdery mildew. The experiment was set up in a complete randomized block design with three repetition, four treatments each, with three observations per treatment. Treatments were as follows: Prunus 1: crude hydrodistillate from Prunus biomass, Prunus 2: benzaldehyde separated from the hydrodistillate at 1,000 ppm, SB-synthetic benzaldehyde, and control-distilled water.
Treatments were applied to infected leaves in early August and in early September. Three adjacent leaves on a vine were sprayed with each treatment and replicated on three different vines (plants). The solutions were applied with a mist sprayer until run off. The first disease reading was obtained in early September, one month after the first treatment application. The second disease reading was obtained in early October, about one month after the second treatment application.
Disease ratings were based on a scale of 1 to 5, with 1 indicating no symptoms and 5 indicating 100-percent infected. The results are summarized in Table 5, in which each datum is a mean value of the three observations for each treatment made on the two dates disease readings were obtained. […] The crude hydrodistillate composition contained all of the volatile chemicals identified above in Example 1. The increased fungicidal action of the crude hydrodistillate indicated synergistic action of the Prunus volatiles relative to purified or synthetic benzaldehyde.

SMILES: O=Cc1ccccc1 [SB, benzaldehyde]
- Powdery mildew disease rating on rose leaves, per repetition ([1]; reading 8/22): 3 and 2
- Powdery mildew disease rating on rose leaves, per repetition ([1]; reading 9/4): 3 and 2
- Control of rose powdery mildew (in words) ([1]; spray on infected rose leaves): less effective in removing the fungus from the infected rose leaves
- Mycelial Growth (radial) ([2]; 25 ppm in PDA, 1 day after treatment): 0.0 cm
- Mycelial Growth (radial) ([2]; 25 ppm in PDA, 2 days after treatment): 1.2 cm
- Mycelial Growth (radial) ([2]; 25 ppm in PDA, 3 days after treatment): 2.8 cm
- Mycelial Growth (radial) ([2]; 25 ppm in PDA, 4 days after treatment): 3.8 cm
- Mycelial Growth (radial) ([2]; 25 ppm in PDA, 5 days after treatment): 4.1 cm
- Mycelial Growth (radial) ([2]; 25 ppm in PDA, 6 days after treatment): 4.1 cm
- Mycelial Growth (radial) ([2]; 25 ppm in PDA, 7 days after treatment): 4.1 cm
- Mycelial Growth (radial) ([2]; 25 ppm in PDA, 14 days after treatment): 4.1 cm
- Mycelial Growth (radial) ([2]; 50 ppm in PDA, 1 day after treatment): 0.0 cm
- Mycelial Growth (radial) ([2]; 50 ppm in PDA, 2 days after treatment): 1.1 cm
- Mycelial Growth (radial) ([2]; 50 ppm in PDA, 3 days after treatment): 2.6 cm
- Mycelial Growth (radial) ([2]; 50 ppm in PDA, 4 days after treatment): 3.1 cm
- Mycelial Growth (radial) ([2]; 50 ppm in PDA, 5 days after treatment): 4.0 cm
- Mycelial Growth (radial) ([2]; 50 ppm in PDA, 6 days after treatment): 4.1 cm
- Mycelial Growth (radial) ([2]; 50 ppm in PDA, 7 days after treatment): 4.1 cm
- Mycelial Growth (radial) ([2]; 50 ppm in PDA, 14 days after treatment): 4.1 cm
- Mycelial Growth (radial) ([2]; 100 ppm in PDA, 1 day after treatment): 0.0 cm
- Mycelial Growth (radial) ([2]; 100 ppm in PDA, 2 days after treatment): 1.2 cm
- Mycelial Growth (radial) ([2]; 100 ppm in PDA, 3 days after treatment): 2.7 cm
- Mycelial Growth (radial) ([2]; 100 ppm in PDA, 4 days after treatment): 3.5 cm
- Mycelial Growth (radial) ([2]; 100 ppm in PDA, 5 days after treatment): 4.1 cm
- Mycelial Growth (radial) ([2]; 100 ppm in PDA, 6 days after treatment): 4.1 cm
- Mycelial Growth (radial) ([2]; 100 ppm in PDA, 7 days after treatment): 4.1 cm
- Mycelial Growth (radial) ([2]; 100 ppm in PDA, 14 days after treatment): 4.1 cm
- Mycelial Growth (radial) ([2]; 500 ppm in PDA, 1 day after treatment): 0.0 cm
- Mycelial Growth (radial) ([2]; 500 ppm in PDA, 2 days after treatment): 0.9 cm
- Mycelial Growth (radial) ([2]; 500 ppm in PDA, 3 days after treatment): 2.3 cm
- Mycelial Growth (radial) ([2]; 500 ppm in PDA, 4 days after treatment): 3.1 cm
- Mycelial Growth (radial) ([2]; 500 ppm in PDA, 5 days after treatment): 4.0 cm
- Mycelial Growth (radial) ([2]; 500 ppm in PDA, 6 days after treatment): 4.0 cm
- Mycelial Growth (radial) ([2]; 500 ppm in PDA, 7 days after treatment): 4.1 cm
- Mycelial Growth (radial) ([2]; 500 ppm in PDA, 14 days after treatment): 4.1 cm
- Mycelial Growth (radial) ([2]; 1,000 ppm in PDA, 1 day after treatment): 0.0 cm
- Mycelial Growth (radial) ([2]; 1,000 ppm in PDA, 2 days after treatment): 0.7 cm
- Mycelial Growth (radial) ([2]; 1,000 ppm in PDA, 3 days after treatment): 1.6 cm
- Mycelial Growth (radial) ([2]; 1,000 ppm in PDA, 4 days after treatment): 2.2 cm
- Mycelial Growth (radial) ([2]; 1,000 ppm in PDA, 5 days after treatment): 3.3 cm
- Mycelial Growth (radial) ([2]; 1,000 ppm in PDA, 6 days after treatment): 4.0 cm
- Mycelial Growth (radial) ([2]; 1,000 ppm in PDA, 7 days after treatment): 4.1 cm
- Mycelial Growth (radial) ([2]; 1,000 ppm in PDA, 14 days after treatment): 4.1 cm
- Mycelial Growth (radial) ([2]; 5,000 ppm in PDA, 1 day after treatment): 0.0 cm
- Mycelial Growth (radial) ([2]; 5,000 ppm in PDA, 2 days after treatment): 0.0 cm
- Mycelial Growth (radial) ([2]; 5,000 ppm in PDA, 3 days after treatment): 0.0 cm
- Mycelial Growth (radial) ([2]; 5,000 ppm in PDA, 4 days after treatment): 0.0 cm
- Mycelial Growth (radial) ([2]; 5,000 ppm in PDA, 5 days after treatment): 0.0 cm
- Mycelial Growth (radial) ([2]; 5,000 ppm in PDA, 6 days after treatment): 0.1 cm
- Mycelial Growth (radial) ([2]; 5,000 ppm in PDA, 7 days after treatment): 0.3 cm
- Mycelial Growth (radial) ([2]; 5,000 ppm in PDA, 14 days after treatment): 0.0 cm
- Mycelial Growth (radial) ([2]; 10,000 ppm in PDA, 1 day after treatment): 0.0 cm
- Mycelial Growth (radial) ([2]; 10,000 ppm in PDA, 2 days after treatment): 0.0 cm
- Mycelial Growth (radial) ([2]; 10,000 ppm in PDA, 3 days after treatment): 0.0 cm
- Mycelial Growth (radial) ([2]; 10,000 ppm in PDA, 4 days after treatment): 0.0 cm
- Mycelial Growth (radial) ([2]; 10,000 ppm in PDA, 5 days after treatment): 0.0 cm
- Mycelial Growth (radial) ([2]; 10,000 ppm in PDA, 6 days after treatment): 0.0 cm
- Mycelial Growth (radial) ([2]; 10,000 ppm in PDA, 7 days after treatment): 0.0 cm
- Mycelial Growth (radial) ([2]; 10,000 ppm in PDA, 14 days after treatment): 0.0 cm
- Powdery mildew disease rating on grape leaves, per repetition ([3]; reading 9/7, one month after first spray): 2 and 1
- Powdery mildew disease rating on grape leaves, per repetition ([3]; reading 10/5, about one month after second spray): 3
- Control of grape powdery mildew (in words) ([3]; spray on infected Pinot Noir leaves, up to second reading): reduced the spread of the mildew fungus, but did not control it
